Source: patent US20070208077A1, “Adiponectin Enhancer” (priority 2004, published 2007)
Several values for one entry are separate records, joined by “and”; a condition that tells them apart may be missing. Equal entries are not always repeated.

Legend:
adiponectin mRNA = experiment: Cellular adiponectin mRNA level by quantitative RT-PCR in 3T3-L1 adipocytes; type: cell-based, mouse; settings: sesamin 50 μM, 8 days of culturing
Experimental: (§1) Mouse-derived 3T3-L1 cells were treated for 42 hours in culturing solution containing insulin, dexamethasone and isobutylxanthine, for differentiation to adipocytes. The culture solution was removed and immediately combined with sesamin-free culturing solution (control) or culturing solution containing sesamin at a final concentration of 50 μM (sesamin), and after culturing for 48 hours, the culture solution was exchanged and culturing was continued for 6 days. The cell culturing was carried out in an incubator controlled to 5% CO2 gas-95% air at a temperature of 37° C. The cellular mRNA levels for adiponectin and TNFα were measured by quantitative RT-PCR using CYBR-Green (BMC Biotechnol. 3, 18, 2003).

TNFα mRNA = experiment: Cellular TNFα mRNA level by quantitative RT-PCR in 3T3-L1 adipocytes; type: cell-based, mouse; settings: sesamin 50 μM, 8 days of culturing, vs control
Experimental: as §1

Zucker fatty rats = experiment: Plasma adiponectin concentration of Zucker fatty rats, ELISA; type: in vivo, rat; settings: male Zucker fatty rats, 0.1% sesamin in AIN-93G feed for four weeks, after overnight starving; control feed 6.06 ± 0.48
Experimental: The rats were divided into two groups with five rats per group, with the first group being freely given AIN-93G (growth stage feed, product of Nihon Crea) as the control group and the second group being freely given feed comprising 0.1% sesamin added to AIN-93G, for a four week period. After four weeks, blood was sampled after overnight starving, and the plasma was separated. The plasma adiponectin concentrations were assayed using an Enzyme-Linked ImmunoSorbent Assay (Mouse/Rat Adiponectin ELISA Kit, product of Otsuka Pharmaceutical).

adiponectin = experiment: Adiponectin production by 3T3-L1 adipocytes, ELISA of culture solution; type: cell-based, mouse; settings: sesamin 50 μM, vs control
Experimental: as §1, with “The” for “The cellular mRNA levels for”, “concentrations in the culture solutions” for “and TNFα”, “Enzyme-Linked ImmunoSorbent Assay (Mouse/Rat Adiponectin ELISA Kit, Otsuka Pharmaceutical).” for “quantitative RT-PCR using CYBR-Green (BMC Biotechnol. 3, 18, 2003).”

3T3-L1 cells = experiment: Effect of inducing size reduction of adipocytes in pre-differentiated 3T3-L1 cell cultures; type: cell-based, mouse; settings: sesamin 50 μM, 3T3-L1 cells pre-differentiated to adipocytes, 8 days of culturing, vs control

## c1cc2c(cc1[C@H]1OC[C@H]3[C@@H]1CO[C@@H]3c1ccc3c(c1)OCO3)OCO2 [sesamin]
Adiponectin mRNA
  adiponectin mRNA levels in the adipocytes, increase with respect to the control group: 7 fold
TNFα mRNA
  TNFα mRNA levels in the adipocytes: decreased
Zucker fatty rats
  Plasma adiponectin: 6.53 µg/mL and 6.53 ± 0.54 µg/mL
adiponectin
  increase of adiponectin concentration in the cell cultured medium: 1.6 fold
3T3-L1 cells
  influence on adipocyte size: numerous small adipocytes
